Test results published in patent publication US4797471A, “Peptide derivatives having an inhibitory action on hydroxylating enzymes, a process for their preparation, agents containing them, and their use” (Hoechst Aktiengesellschaft, priority 1985, dated 1989).

Key:
[1] = target: Lysine hydroxylase; experiment: Enzyme test: hydroxylation of underhydroxylated collagen, lysine hydroxylase inhibition; assay type: biochemical; details: 50% inhibition of the enzyme reaction; Iron(II) ions, α-ketoglutarate and ascorbate
Excerpt: (§1) The inhibitory action of the substances according to the invention, for example on collagen biosynthesis, can be tested in an enzyme test in analogy to the method of B. Peterkovsky and R. DiBlasio, Anal. Biochem. 66, 279-286 (1975). This entails enzymatic hydroxylation of underhydroxylated collagen in the presence of IronlII) ions, α-ketoglutarate and ascorbate. The enzymes which can be used are prolyl 4-hydroxylase, prolyl 3-hydroxylase or lysl hydroxylase in a cell-free test medium. The inhibitory action can also be measured in cell or tissue culture and is reported as 50% inhibition of the enzyme reaction (IC50).

[2] = target: Proline hydroxylase; experiment: Enzyme test: hydroxylation of underhydroxylated collagen, proline hydroxylase inhibition; assay type: biochemical; details: 50% inhibition of the enzyme reaction; Iron(II) ions, α-ketoglutarate and ascorbate
Excerpt: as §1

| SMILES | IC50 [1] | IC50 [2] |
| --- | --- | --- |
| CC(=O)N[C@@H](CCCNC(=O)c1cc(O)c(O)c(O)c1)C(=O)N1CCC[C@H]1C(=O)NCC(=O)O [Ac--Orn(3,4,5-Trihydroxybenzoyl)-Pro--Gly--OH] | 8 µM | 29 µM |
| CC(=O)N[C@@H](CCCNC(=O)c1ccc(O)c(O)c1)C(=O)N1CCC[C@H]1C(=O)NCC(=O)O [Ac--Orn(3,4-Dihydroxybenzoyl)-Pro--Gly--OH] | 7 µM | 72 µM |
| CC(=O)N[C@@H](CCCNC(=O)Cc1ccc(O)c(O)c1)C(=O)N1CCC[C@H]1C(=O)NCC(=O)O [Ac--Orn(3,4-Dihydroxyphenylacetyl)-Pro--Gly--OH] | 37 µM | 140 µM |
| CC(=O)N1CCC[C@H]1C(=O)N[C@@H](CCCNC(=O)c1cc(O)c(O)c(O)c1)C(=O)NCC(=O)O [Ac--Pro--Orn(3,4,5-Trihydroxybenzoyl)-Gly--OH] | 26 µM | 17 µM |
| CC(=O)N1CCC[C@H]1C(=O)N[C@@H](CCCNC(=O)Cc1ccc(O)c(O)c1)C(=O)NCC(=O)O [Ac--Pro--Orn(3,4-Dihydroxyphenylacetyl)-Gly--OH] | 70 µM | 155 µM |
| CC(=O)N[C@@H](CCCNC(=O)c1cccc(O)c1O)C(=O)N1CCC[C@H]1C(=O)NCC(=O)O [Ac-Orn(2,3-dihydroxybenzoyl)-Pro-Gly-OH] | 7 µM | 38 µM |
| CC(=O)N1CCC[C@H]1C(=O)N[C@@H](CCCNC(=O)c1ccc(O)c(O)c1)C(=O)NCC(=O)O [Ac-Pro-Orn(3,4-dihydroxybenzoyl)-Bly-OH] | 39 µM | 50 µM |
